Columns and labels:
B. subtilis 168 (pBMV4) = test: paper disk growth inhibition on agar medium, B. subtilis 168 (pBMV4); type: cell-based, Bacillus subtilis; settings: 50 μl of 5 μg/ml fosmidomycin on paper disk, 37° C. overnight
Description: The B. subtilis 168 (pBMV4) was subjected to shaking culturing at 37° C. overnight in 5 ml of LB liquid medium containing 3.4 μg/ml chloramphenicol. […]
The gene on the pBMV4 is expressed only in the presence of IPTG 50 μl of aqueous solution of 5 μg/ml fosmidomycin was dropped on a paper disk, and then the paper disk was placed on the above two types of agar mediums, followed by culturing at 37° C. overnight.

[1] = tested on: B. subtilis delypgA (pBMV4); test: paper disk growth inhibition on agar medium, B. subtilis delypgA (pBMV4); type: cell-based, Bacillus subtilis; settings: 50 μl of 5 μg/ml fosmidomycin on paper disk, 37° C. overnight
Description: The B. subtilis delypgA (pBMV4) was subjected to shaking culturing at 37° C. overnight in 5 ml of LB liquid medium containing 3.4 μg/ml chloramphenicol.
One thousandth amount of the above culture solution was added into Nutrient Broth “Eiken” (Eiken Chemical Co., Ltd.) containing 3.4 μg/ml chloramphenicol to prepare an agar medium.
One thousandth amount of the above culture solution was added into Nutrient Broth “Eiken” containing 1 mM IPTG, 3.4 μg/ml chloramphenicol and 0.02% mevalonic acid to prepare an agar medium. The gene on the pBMV4 is expressed only in the presence of IPTG
50 μl of aqueous solution of 5 μg/ml fosmidomycin was dropped on a paper disk, and then the paper disk was placed on the above two types of agar mediums, followed by culturing at 37° C. overnight.

[2] = medium to which mevalonic acid and IPTG were added
[3] = medium to which mevalonic acid and IPTG were not added

O=CN(O)CCCP(=O)(O)O [fosmidomycin]
growth inhibition ring (B. subtilis 168 (pBMV4); [2]): not observed
growth inhibition ring (B. subtilis 168 (pBMV4); [3]): observed
growth inhibition ring [1, 2]: not observed
growth inhibition ring [1, 3]: observed
